Results as given in BindingDB's records for patent US20230322715 (University of California, 2023).

Columns and labels:
Test in all cases: In Vitro Inhibition Assay Method
[1] = biological target: Alpha-ketoglutarate-dependent dioxygenase FTO (Homo sapiens, UniProt Q9C0B1)
Experimental: (§1) Inhibitors were added in concentrations ranging from 0.008-40 μM; all inhibitors were dissolved in DMSO and added to a final concentration of 0.2% DMSO. […] After incubation at room temperature for 2 hours, the plates were left at 4 C. overnight (16 hours) to allow DFHBI-1T to bind to A7-Broccoli RNA. […] Sigmoidal dose-response curves were fitted in GraphPad Prism 6.

RNA demethylase ALKBH5 = RNA demethylase ALKBH5 (Homo sapiens, UniProt Q6P6C2)
Chain of RNA demethylase ALKBH5 (Q6P6C2 whole entry): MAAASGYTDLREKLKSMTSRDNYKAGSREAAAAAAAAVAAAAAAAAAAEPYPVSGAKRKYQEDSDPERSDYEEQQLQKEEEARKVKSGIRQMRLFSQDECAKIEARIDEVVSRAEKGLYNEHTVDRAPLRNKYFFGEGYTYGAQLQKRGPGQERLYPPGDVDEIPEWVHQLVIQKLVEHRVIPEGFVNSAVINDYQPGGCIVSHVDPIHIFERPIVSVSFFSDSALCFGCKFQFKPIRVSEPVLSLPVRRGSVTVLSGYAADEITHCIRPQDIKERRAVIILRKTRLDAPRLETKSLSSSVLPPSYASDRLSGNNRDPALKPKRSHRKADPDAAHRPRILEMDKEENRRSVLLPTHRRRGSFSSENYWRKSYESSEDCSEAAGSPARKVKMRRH
Experimental: as §1

[2] = biological target: T1, YTH domain-containing family protein 1 (Homo sapiens, UniProt Q9BYJ9)
T1 sequence (Q9BYJ9 whole entry): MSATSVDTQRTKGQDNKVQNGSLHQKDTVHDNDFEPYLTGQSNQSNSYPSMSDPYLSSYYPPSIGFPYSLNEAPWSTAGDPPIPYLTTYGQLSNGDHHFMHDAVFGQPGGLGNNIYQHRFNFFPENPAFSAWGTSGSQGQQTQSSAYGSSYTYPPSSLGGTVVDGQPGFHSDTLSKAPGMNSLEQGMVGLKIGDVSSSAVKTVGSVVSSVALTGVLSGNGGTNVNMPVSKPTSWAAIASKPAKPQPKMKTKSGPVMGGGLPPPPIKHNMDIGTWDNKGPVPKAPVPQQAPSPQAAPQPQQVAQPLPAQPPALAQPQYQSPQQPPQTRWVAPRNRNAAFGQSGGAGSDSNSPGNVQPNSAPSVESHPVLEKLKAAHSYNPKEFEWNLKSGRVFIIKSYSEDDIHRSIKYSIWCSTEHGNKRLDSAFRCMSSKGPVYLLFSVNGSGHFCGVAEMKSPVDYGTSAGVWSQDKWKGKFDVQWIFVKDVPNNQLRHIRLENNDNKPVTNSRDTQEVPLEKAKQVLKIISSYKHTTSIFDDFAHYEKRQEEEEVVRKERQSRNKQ
Experimental: as §1

[3] = biological target: T2, YTH domain-containing family protein 2 (Homo sapiens, UniProt Q9Y5A9)
T2 sequence (Q9Y5A9 whole entry): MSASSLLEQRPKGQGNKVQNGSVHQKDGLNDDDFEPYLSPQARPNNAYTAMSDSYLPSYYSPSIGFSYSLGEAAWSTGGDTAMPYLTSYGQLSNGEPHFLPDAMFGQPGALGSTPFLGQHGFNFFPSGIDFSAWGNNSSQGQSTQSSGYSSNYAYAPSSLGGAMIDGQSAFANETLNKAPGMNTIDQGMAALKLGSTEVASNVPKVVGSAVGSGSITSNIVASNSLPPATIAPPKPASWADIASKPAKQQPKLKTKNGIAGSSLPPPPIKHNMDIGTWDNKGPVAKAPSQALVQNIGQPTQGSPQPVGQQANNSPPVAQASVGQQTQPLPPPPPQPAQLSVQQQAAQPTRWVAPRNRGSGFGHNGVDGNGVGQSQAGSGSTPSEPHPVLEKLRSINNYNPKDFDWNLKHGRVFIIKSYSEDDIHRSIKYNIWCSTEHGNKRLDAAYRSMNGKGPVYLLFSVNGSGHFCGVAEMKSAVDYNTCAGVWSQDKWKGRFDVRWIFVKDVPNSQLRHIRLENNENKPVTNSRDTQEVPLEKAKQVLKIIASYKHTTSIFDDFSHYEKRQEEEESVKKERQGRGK
Experimental: as §1

Chain of Alpha-ketoglutarate-dependent dioxygenase FTO (Q9C0B1 whole entry): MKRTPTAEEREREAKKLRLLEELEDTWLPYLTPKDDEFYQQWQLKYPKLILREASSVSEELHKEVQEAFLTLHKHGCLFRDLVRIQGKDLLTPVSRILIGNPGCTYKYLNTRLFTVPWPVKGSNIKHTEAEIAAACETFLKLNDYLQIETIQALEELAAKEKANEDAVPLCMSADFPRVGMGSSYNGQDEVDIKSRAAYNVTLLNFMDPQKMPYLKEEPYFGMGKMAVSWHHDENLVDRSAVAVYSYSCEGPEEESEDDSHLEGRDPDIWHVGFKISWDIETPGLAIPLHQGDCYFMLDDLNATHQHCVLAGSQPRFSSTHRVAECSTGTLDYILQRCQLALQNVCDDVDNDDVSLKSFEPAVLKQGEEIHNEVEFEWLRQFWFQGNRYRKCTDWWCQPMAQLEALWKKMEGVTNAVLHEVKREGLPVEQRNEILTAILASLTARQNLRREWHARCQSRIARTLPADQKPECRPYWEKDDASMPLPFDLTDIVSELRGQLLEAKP

SMILES	IC50 [1] [nM]	IC50 (RNA demethylase ALKBH5) [nM]	Ki [2] [nM]	Ki [3] [nM]
O=S(=O)(Nc1ccc(Cl)c(Cl)c1)c1ccc(OC(F)(F)F)cc1 [US20230322715, Compound TR-ALKBH5-33]	> 40000	2600		
O=C(C1CC1)N1CCN(S(=O)(=O)c2ccc(OC(F)(F)F)cc2)CC1 [US20230322715, Compound TR-ALKBH5-41]	> 40000	450		
CSc1ccccc1Nc1ccc(CNC2CC2)cn1 [US20230322715, Compound TR-YTH-11]			13.4	5.59
COc1cc(Nc2ccc(CNC3CC3)cn2)cc(OC)c1 [US20230322715, Compound TR-YTH-13]			0.473	0.15
Fc1ccc(Nc2ccc(CNC3CC3)cn2)c(F)n1 [US20230322715, Compound TR-YTH-14]			0.399	0.128
Cc1ccc(Nc2ccc(CN(C)C)cn2)cc1C [US20230322715, Compound TR-YTH-17]			0.605	0.333
